Here are results for one compound from patent publication US8580783B2, “[1,2,4]triazolo [1,5-c]pyrimidine derivatives as Hsp90 modulators” (Nerviano Medical Sciences S.r.l., priority 2010, dated 2013).

Each structure is given as a SMILES string.

This assay deals with Her2 protein levels in BT474 breast cancer cells. As to the kind of experiment: Her2 degradation assay (marker for Hsp90 inhibition). The format is cell-based. The settings on record: Homo sapiens, BT-474, 8 hours with compound, Her2 immunocytochemistry, ArrayScan vTi. The method, then: Its inhibition impairs the capacity to fold or stabilize its client proteins, leading to the proteosomal dependent degradation of these unfolded proteins.
Cellular Her2 levels were measured by immunocytochemistry, and quantified using an ArrayScan vTi instrument (Cellomics Thermo Scientific).
Studies were performed as follows: 5000 cells/well are seeded in 96 well plates (Perkin Elmer) in DMEM/5% FCS and incubated for 48 hours at 37° C., 5% CO2.
Medium is then replaced with fresh medium containing test compounds at the required concentration. Concentration curves are prepared in DMEM/10% FCS from compound stocks in DMSO, and final DMSO concentration is 0.1% (v/v). Duplicate wells for each concentration point are prepared, with a typical highest compound concentration of 30 μM. […] Non-specific binding sites are blocked by incubating wells for 1 hour in PBS containing 3% (w/v) BSA. […] At least 10 fields, corresponding to at least 900 cells, are read for each well.

Take `Nc1nc2c3c(F)cccc3nc(Cc3ccc4c(c3)OCO4)n2n1` [5-(1,3-benzodioxol-5-ylmethyl)-10-fluoro[1,2,4]triazolo[1,5-c]quinazolin-2-amine]: the half-maximal inhibitory concentration (IC50) (usually the concentration needed to halve the response being measured) was 6.78 µM.
